Test results as given in PMC6321252 (Molecules, 2018).

Assays:
Caco-2 cells = experiment: Cell viability (MTT assay) in Caco-2 cells; assay type: cell-based; settings: BB 12.5 to 50 μM, 24 h
Procedure: The cells were treated with different doses of compounds and incubated for 24 h. Cell viability was determined using the MTT assay. Briefly, the cells were incubated with the MTT reagent (0.5 mg/mL) at 37 °C for 4 h, and the absorbency at a wavelength of 492 nm was measured using FlexStation 3 (Molecular Devices, Sunnyvale, CA, USA). The percentage of optical density was calculated by comparing with that of the control group.

[1] = Transepithelial transport of BB across Caco-2 cell monolayers; assay type: in vitro ADME; settings: human, read-out: efflux ratio R = Papp(B-A)/Papp(A-B) of BB
Procedure: (§1) Monolayers were employed at 21 days after seeding. To ensure the integrity of each cell monolayer, transepithelial electrical resistance was determined. Subsequently, cell monolayers were incubated with compounds in fresh incubation media from either the AP or BL side for designated time periods at 37 °C. The volume of incubation media on the AP and BL sides was 0.5 and 1.5 mL, respectively, and a 30 µL aliquot of the incubation solution was withdrawn at designated time points (60, 120, 180, and 240 min) from the receiver compartment and replaced with the same volume of a fresh prewarmed HBSS buffer.
(§2) BB concentrations were detected through LC–MS/MS. Apparent permeability (Papp) was calculated as follows:Papp = (dQ/dt) × VA/(C0 × A)(1) where dQ/dt is the permeability rate, A is the surface area of the monolayer, and C0 is the initial concentration of the drug.

Caco-2 cell monolayers = experiment: as above; assay type: in vitro ADME
Procedure: as §1, §2

[2] = parameters: method as in PMID 21637946; settings: cited from earlier work
P-gp = settings: cited from earlier work
db/db mice = experiment: Hypoglycemic study in diabetic db/db mice; assay type: in vivo, C57BLKS/J db/db mice; settings: for AUC for the IPTT vs nontreated db/db mice / AUC for the OGTT vs nontreated db/db mice: 5 weeks administration; for AUC for the IPTT vs nontreated db/db mice / AUC for the OGTT vs nontreated db/db mice / effect on body weight (obesity): metformin 150 mg/kg, BB 200 mg/kg, BB 200 mg/kg plus OPCs 60 mg/kg; for effect on body weight (obesity): repeated oral administration 4 weeks
Procedure: Male C57BLKS/J db/db and db/m mice were obtained from the Model Animal Research Center of Nanjing University (Nanjing, China). The mice were housed in a temperature-and humidity-controlled room with free access to standard chow and water under a 12/12-h light/dark cycle. At 6 weeks of age, the diabetic db/db mice were randomly divided into 4 groups (n = 10 per group). […] After 6 h of fasting, their blood glucose was monitored using blood from the tail vein and a glucometer (Accu-CHEK, Roche, IN, USA) every week. On Days 33 and 35 after drug administration, the mice were fasted for 12 and 6 h to perform an OGTT and IPTT, respectively. At the end of the experimental period, the mice’s blood was collected for further studies. Serum TG and TC levels were assayed using commercial enzyme assay kits (Rongsheng, Shanghai, China).

SMILES	cytotoxicity on Caco-2 cells (MTT) (Caco-2 cells)	efflux ratio at 240 min [1]	Papp(A-B) of BB (Caco-2 cell monolayers; apical to basolateral)	Papp(B-A) of BB (Caco-2 cell monolayers; basolateral to apical)	oral bioavailability [2] [%]	P-gp substrate status (P-gp)	AUC for the IPTT vs nontreated db/db mice (db/db mice; p < 0.001 vs. control)	AUC for the OGTT vs nontreated db/db mice (db/db mice; p < 0.001 vs. control)	hepatotoxicity (from serum ALT and AST) (db/db mice; 5 weeks, BB 200 mg/kg with or without OPCs 60 mg/kg)	lowering of fasting blood glucose (FBG) (db/db mice; oral, 4 weeks, BB 200 mg/kg with or without OPCs 60 mg/kg, p < 0.001 vs. control) [%]	effect on body weight (obesity) (db/db mice)
COc1ccc2cc3[n+](cc2c1OC)CCc1cc2c(cc1-3)OCO2 [BB, Berberine]	no toxic effect	7.74 ± 1.13	0.146 ± 0.012 ×10^−6	1.001 ± 0.049 ×10^−6	< 1	substrate of P-gp	significantly lower	significantly lower	did not cause hepatotoxicity	35	no significant effect
CN(C)C(=N)N=C(N)N [metformin]							significantly lower	significantly lower			no significant effect
